{"source": "patent US20020006447A1", "about": "“Anti-chlamydia agent” (Mitsui Norin Co., Ltd., priority 1998, published 2002)", "tested_on": "C. trachomatis", "test": "C. trachomatis inclusion body formation in HeLa 229 cells after pre-incubation with single catechins (Example 2)", "type": "cell-based, Chlamydia trachomatis", "details": "incubated for 90 minutes at 37° C.", "description": "As test Chlamydia was used C. trachomatis strain. Chlamydia capable of forming 10^4 inclusion bodies was incubated at 37° C. for 90 minutes in a SPG solution containing (−)-epicatechin gallate or (−)-epigallocatechin gallate in various concentratIons. After completion of the incubation, each solution was inoculated onto Hela 229 cell cultivated by monolayer culture and adsorbed by centrifugation at 1,500 rpm for 60 minutes. Thereafter, the inoculum was removed and culture medium for Chlamydia (Eagle Minimum Essential Culture Medium containing 1 μg/ml cycloheximide) was added and cultivation was performed at 37° C. for 72 hours. After completion of cultivation, the culture medium was removed and the cells were fixed with methanol and then stained with FITC-labeled anti-C. trachomatis monoclonal antibody, followed by counting the number of inclusion bodies of C. trachomatis.", "data": [{"molecule": "O=C(O[C@@H]1Cc2c(O)cc(O)cc2O[C@@H]1c1ccc(O)c(O)c1)c1cc(O)c(O)c(O)c1", "note": "[(−)-epicatechin gallate]", "values": [{"measurement": "concentration that completely inhibited the growth of C. trachomatis", "value": 0.8, "unit": "mg/mL"}]}, {"molecule": "(−)-epigallocatechin gallate", "values": [{"measurement": "concentration that completely inhibited the growth of C. trachomatis", "value": 1.6, "unit": "mg/mL"}]}]}
